No end group written: not given here.
Columns and labels:
MDA-MB-231 cells = experiment: Half-life of biotin-labeled peptides in living cells (Western blotting); format: in vitro ADME, human; conditions: biotin-labeled peptide 20 µM for 2 h, then fresh medium, cells collected 0-48 h, β-actin loading control
Method: (§1) SDS-PAGE gel electrophoresis and Coomassie brilliant blue staining were performed to measure peptide stability. […] Cells were collected at different post-treatment time points (0, 1, 2, 4, 8, 16, 24, 36, 48 h). […] D The docking of peptide P22 (106–126) to the FOXM1 C-terminus (PDB ID 6OSW) was created by Rosetta FlexPepDock and PyMOL. Left, the interface of peptide-protein interaction, the peptide was shown in cyan, and the C-terminus of FOXM1 was shown according to its electrostatic potential. Right, hydrogen bonds are formed by residues at the interface of peptide and protein interaction. […] Streptavidin magnetic beads were added to lysates to pull down the biotin-peptides/protein complexes. […] M1-21mut was used as the control.

[1] = biological target: T1, Flag-GFP-FOXM1(688–748) protein (Homo sapiens, UniProt Q08050); experiment: Biotin-peptide Pulldown with Streptavidin Magnetic Beads; format: binding; conditions: biotin-labeled peptide, 293T cell lysates (500 µg) expressing Flag-GFP-FOXM1(688–748); Western Blotting
T1 construct: expressing exogenous Flag-GFP-FOXM1(688-748) protein; expressed in transfected cells; host or cells: 293T (HEK-293T) cell lysates
T1 sequence (Q08050 688-748 isoform Q08050-2): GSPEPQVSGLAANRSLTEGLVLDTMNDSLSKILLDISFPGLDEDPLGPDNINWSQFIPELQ
From the text: Fig. 1 Screening of TAT-106-126 peptide targeting FOXM1 protein. A An in silico peptide library (P1 to P24, 21-mer) was created from the FOXM1 N-terminus sequence (1-138aa) with a 5 amino acid shift window. The peptide candidates binding to FOXM1 C-terminus (PDB ID 6OSW) were selected by Rosetta FlexPepDock simulation and InterfaceAnalyzer calculation according to docking free energy (dG). B P20, P21, and P22 fused with the cell-penetrating TAT sequence (TAT-96-116, TAT-101-121, and TAT-106-126) were produced by solid-phase peptide synthesis. […] Data points indicated the fraction of GFP-M1(688–748)-bound peptides (ΔFNormal/Amplitude) at different concentrations and curves indicated the calculated fits. The error bars represented the standard error of three independent measurements. […] 48 h Later, trypan blue (0.4%) was added to each well for 3 min and the cells were fixed to 4% paraformaldehyde for imaging. […] The mean IC50 value (µM) for each peptide was obtained from three replicates. D The TAT-106-126 peptide was biotin-labeled and added to 293T cell lysates (500 µg) expressing exogenous Flag-GFP-FOXM1(688–748) protein. The lysates were incubated with Streptavidin magnetic beads to pull down biotin-peptide/protein complexes. Biotin and Flag-GFP-FOXM1(688–748) protein in samples were detected by Western Blotting. […] E Biotin-labeled TAT-106-126 or TAT was added to 293T cell lysates (500 µg). The lysates were incubated with Streptavidin magnetic beads to pull down biotin-peptide/protein complexes. Biotin and endogenous FOXM1 protein were detected by Western Blotting.
A Biotin-labeled peptides TAT-96-116, TAT-101-121, and TAT-106-126 were added to 293T cell lysates (500 µg) expressing exogenous Flag-GFP-FOXM1(688-748) protein (or Flag-GFP control lysates). The lysates were incubated with Streptavidin magnetic beads to pull down biotin-peptide/protein complexes. Biotin and Flag-GFP-FOXM1(688-748) protein in samples were detected by Western Blotting. […] Biotin and exogenous FOXM1 protein were detected by Western Blotting.

full-length FOXM1 = biological target: T2, full-length FOXM1 (Homo sapiens, UniProt Q08050); experiment: as above; format: binding; conditions: biotin-labeled peptide, cell lysates (500 µg) with endogenous or exogenous FOXM1; Western Blotting
T2 sequence (Q08050 703-763 limits assumed): T1 sequence (Q08050 688-748 isoform Q08050-2)
Method: as §1

[2] = biological target: T3, interaction between FOXM1 and PLK1 (Homo sapiens, UniProt Q08050); experiment: Co-IP in 231-Flag-FOXM1-Ind cells; format: cell-based; conditions: doxycycline 200 ng/mL 24 h, M1-21 10, 20 µM or TAT-106-126 20, 40, 80 µM for 6 h
T3 construct: expressed in transfected cells; host or cells: MDA-MB-231 stably infected with pLVX-TetOne-Flag-FOXM1b lentivirus (231-Flag-FOXM1-Ind), doxycycline-induced
From the text: Number of repetitions = 3. […] Number of repetitions = 3. […] Number of repetitions = 3. […] GAPDH was used as a loading control.

T3 sequence (Q08050 1-748 isoform Q08050-2): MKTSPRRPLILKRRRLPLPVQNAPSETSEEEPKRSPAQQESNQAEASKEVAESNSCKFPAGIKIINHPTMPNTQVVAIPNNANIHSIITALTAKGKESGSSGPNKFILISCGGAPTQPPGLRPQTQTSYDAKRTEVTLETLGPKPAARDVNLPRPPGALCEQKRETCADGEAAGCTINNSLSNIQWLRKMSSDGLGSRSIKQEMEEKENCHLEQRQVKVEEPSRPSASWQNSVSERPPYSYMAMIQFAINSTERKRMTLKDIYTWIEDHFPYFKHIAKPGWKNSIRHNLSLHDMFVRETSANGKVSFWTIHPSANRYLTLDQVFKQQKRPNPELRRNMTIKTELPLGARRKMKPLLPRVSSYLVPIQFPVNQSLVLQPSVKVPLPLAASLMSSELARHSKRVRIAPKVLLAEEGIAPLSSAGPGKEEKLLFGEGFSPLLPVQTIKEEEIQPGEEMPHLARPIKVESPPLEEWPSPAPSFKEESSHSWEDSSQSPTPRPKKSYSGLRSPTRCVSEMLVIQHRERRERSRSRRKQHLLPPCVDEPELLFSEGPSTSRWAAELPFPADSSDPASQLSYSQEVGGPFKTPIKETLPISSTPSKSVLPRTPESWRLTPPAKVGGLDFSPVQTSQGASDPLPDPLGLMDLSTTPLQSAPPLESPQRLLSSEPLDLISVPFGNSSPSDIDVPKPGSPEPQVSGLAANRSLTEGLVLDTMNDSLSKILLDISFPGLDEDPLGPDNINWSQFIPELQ

Sequence | Half-life in living MDA-MB-231 cells (MDA-MB-231 cells) [h] | binding to FOXM1 C-terminus in Pulldown [1] | binding to full-length FOXM1 in Pulldown (full-length FOXM1) | interaction between FOXM1 and PLK1 (Co-IP) [2]
GRKKRRQRRRFILISCGGAPTQPPGLRPQTQ [TAT-106-126] | 6.2 | capable of binding | capable of binding | comparable activity to M1-21
GRKKRRQRRRKESGSSGPNKFILISCGGAPT [TAT-96-116] |  | interacted | neither of them effectively bound | 
GRKKRRQRRRSGPNKFILISCGGAPTQPPGL [TAT-101-121] |  | interacted | neither of them effectively bound | 

From PMC10286459 (Cell & Bioscience, 2023)
